Results published in the METLIN SMRT retention time set (Domingo-Almenara et al. 2019).

Assay: gradient 5% acetonitrile 3 min, to 50% in 2 min, to 85% in 15 min, held 3 min, 100 µL/min
Conditions: column: Zorbax Extend-C18 2.1 x 50 mm; eluents: water / acetonitrile, 0.1% formic acid
Summary of the method: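 Retention times of pure standards were taken from adduct peaks that were selected by computer and manually inspected. Over 3 months, mixtures of ~100 molecules were run by HPLC–quadrupole time-of-flight mass spectrometry in positive and negative ionization mode. The Zorbax Extend-C18 column (2.1 × 50 mm, 1.8 μm) ran at 100 μL/min in water and acetonitrile, each containing 0.1% formic acid, with 40 μL dead volume and 900 μL dwell volume.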

| Compound | RP-LC retention time |
| --- | --- |
| Cc1cccc(S(=O)(=O)N2CCC(c3noc(-c4ccc(F)cc4)n3)CC2)c1 | 1180 s |
| O=C(COc1ccc(F)cc1)N1[C@H]2CC[C@@H]1c1cnc(-c3ccc(F)cc3)nc1C2 | 760 s |
| O=C(NCc1ccccc1Cl)C(=O)NCC1CCN(C(=O)Oc2ccccc2)CC1 | 893 s |
| CCOCCCNC(=O)c1c(N2CCCC2=O)c2cc(C)ccc2n1C | 782 s |
| Cc1cc2c(N3CCCC(C(=O)NCc4ccc(N5CCC(C)CC5)cc4)C3)nccc2s1 (stereo not drawn) | 592 s |
| CCc1noc(-c2nc(-c3ccc(F)c(F)c3)no2)n1 | 1090 s |
| COc1ccc2c(c1)CCc1sc(NC(=O)c3ccc(OC)c(Br)c3)nc1-2 | 1210 s |
| COc1ccc(OC)c(Nc2c(-c3ccc(C)cc3)nc3cnccn23)c1 | 911 s |
| CN(C)c1ccc(-c2nc3ncccn3c2Nc2cccc(C(F)(F)F)c2)cc1 | 765 s |
| COC(=O)c1ccccc1Nc1c(-c2cccc(Br)c2)nc2cnccn12 | 1090 s |
| O=C(CSc1nc2ccc([N+](=O)[O-])cc2s1)c1ccc(F)cc1 | 1030 s |
| Cn1ccc2cc(S(=O)(=O)N3CCC(C(=O)N4CCN(c5ncccn5)CC4)CC3)ccc21 | 821 s |
| O=C(NCCc1c[nH]c2ccc(Cl)cc12)c1cccc(NC(=O)c2nnc(C3CC3)s2)c1 | 928 s |
| CN1C(=O)C2(CCN(C(=O)c3ccnn3C)CC2)c2ccccc21 | 699 s |
| COc1ccc(N2CC(c3noc(-c4ccccc4F)n3)CC2=O)cc1OC (stereo not drawn) | 818 s |
| Cc1ccc(C(=O)Nc2ccc(N3CCN(Cc4ccccc4)C3=O)nc2)s1 | 847 s |
| Cc1ccc(Cl)cc1NC(=O)CC1COc2ccccc2NC1=O (stereo not drawn) | 767 s |
| CCOc1ccc(-c2noc(Cn3ncn4nc(-c5ccc(OC)cc5)cc4c3=O)n2)cc1OC | 1040 s |
| CCc1ccc(-c2csc(Nc3cc(C)ccn3)n2)cc1 | 1040 s |

| Compound | RP-LC retention time |
| --- | --- |
| O=C(Cn1c(=O)c2cc(-c3ccco3)nn2c2ncccc21)NC1CCCC1 | 698 s |
| CCc1nc2cc(-c3noc(Cc4ccc(NC(C)=O)cc4)n3)ccc2o1 | 916 s |
| CCc1ccc(NS(=O)(=O)c2cc(-c3c(CC)noc3NC(C)=O)ccc2C)cc1 | 886 s |
| Cc1nc2c(c(C)c1CCC(=O)NCC1CCN(CC(C)C)C1)c(=O)n(C)c(=O)n2C (stereo not drawn) | 610 s |
| CC(C)N1CCN(S(=O)(=O)c2ccc(-c3nnc(C4CC4)o3)o2)CC1 | 611 s |
| CNC(=O)Oc1ccc2c(c1)[C@]1(C)CCN(C)C1N2C (stereo partly drawn) | 594 s |
| CN(C)CC(=O)N1CC(F)(F)C[C@H]1c1nc(C2CC2)no1 | 584 s |
| Cc1ccccc1Nc1c(-c2ccc(N(C)C)cc2)nc2ccccn12 | 767 s |
| Cc1cc(S(=O)(=O)N2CCN(C3CCN(Cc4ccccn4)C3=O)CC2)ccc1Cl (stereo not drawn) | 622 s |
| COc1ccc(OC)c2sc(NC(=O)c3ccc(S(=O)(=O)N4CCCC4)cc3)nc12 | 872 s |
| CSc1ccccc1NC(=O)c1nnn(-c2cc(Cl)ccc2C)c1C | 1180 s |
| CC(C)NC(=O)NC1CCN(c2nc3ccccc3n(C)c2=O)CC1 | 562 s |
| CCCCN(CCNC(=O)C1CCCN(c2ncnc3c2nc2n3CCCCC2)C1)Cc1ccco1 (stereo not drawn) | 656 s |
| Cc1nc(NC(=O)Cc2c(C)[nH]c(=O)[nH]c2=O)sc1C(=O)Nc1ccccc1 | 617 s |
| CCc1nc2sc(C(C)C)nn2c1S(=O)(=O)N1CCCC1 | 945 s |
| Cc1cc(Cl)ccc1OCC(=O)N1CCn2c(nnc2C(C)C)C1 | 665 s |
| Cc1ccc(NC(=O)Cn2cnc3nc(N4CCC(C(=O)NC5CC5)CC4)sc3c2=O)cc1C | 693 s |
| COCCn1cc(C(=O)Nc2ccc(C(C)=O)cc2)c2nn(-c3ccccc3)c(=O)c-2c1 | 865 s |

Further lines, results first:

| RP-LC retention time | Compound |
| --- | --- |
| 873 s | COc1cc(OC)c(NC(=O)NC2CCN(c3ccc(C)cc3)C2=O)cc1Cl (stereo not drawn) |
| 603 s | Cc1ccc2c(c1)N(C(=O)CCC(=O)NCCCN1CCN(C3CCCCC3)CC1)CC(C)O2 (stereo not drawn) |
| 682 s | COc1cccc2c(Nc3ccc(N(C)C)cc3)cc(C(=O)N3CCSCC3)nc12 |
| 913 s | O=C(CN1CCc2ccccc2C1C(=O)N1CCCCC1)NCc1cccc(Cl)c1 (stereo not drawn) |
| 753 s | COc1cc(N2C=C(C(=O)N3CCCC3)S(=O)(=O)c3ccccc32)cc(OC)c1OC |
| 854 s | COc1cc(NC(=O)C2CCCN(c3cc(=O)n(C)c(=O)n3C)C2)cc(OC)c1OC (stereo not drawn) |
| 594 s | COc1ccc(CCS(=O)(=O)NCC(c2cccn2C)N2CCOCC2)cc1 (stereo not drawn) |
| 792 s | O=C(C1CCCO1)N1CCC(c2cnn(-c3cccc(F)c3)c2)CC1 (stereo not drawn) |
| 666 s | O=C(C1=CCN(Cc2cccc(F)c2)CC1)N1CCN(c2ccccc2F)CC1 |
| 595 s | CCCNc1cc(N2CCC(CCC(=O)NCC)CC2)ncn1 |
| 808 s | Cc1nn(-c2ccc(F)cc2)c2c1c(=O)c(C(=O)NCc1cccs1)cn2C |
| 877 s | O=C(C1CCC1)N1CCc2sc(S(=O)(=O)NCc3ccc(F)cc3)cc2C1 |
| 635 s | Cc1ccc(NC(=O)N2CCC(n3cnnc3C3CC3)C2)cc1 (stereo not drawn) |
| 664 s | COc1ccc(S(=O)(=O)N2CCN(c3cc(-n4ccnc4)nc(C)n3)CC2)cc1Cl |
| 587 s | CCc1cc(C(=O)Cc2nc3ccccc3n2C)c(O)cc1O |
| 1070 s | CCOC(=O)N1CCN(C(=O)Cc2c(C)nn(-c3nc(-c4ccc(C)cc4)cs3)c2C)CC1 |
| 822 s | COc1ccc(-c2ccc3nc(N4CCC(C(=O)N5CCOCC5)CC4)sc3n2)cc1 |
| 588 s | CN(C)C[C@@H]1CN(C)C[C@H]1NC(=O)NCc1ccc(OC(F)(F)F)cc1 |
| 702 s | COCc1cc(=O)n(CC(=O)Nc2ccc(OC)c(OC)c2)c(N2CCOCC2)n1 |
| 668 s | Cc1cc(NC(=O)CSc2nnc3sc4ccccc4n23)no1 |
| 890 s | Cc1ccc(C(=O)Nc2ccc(-c3nc(Cn4cccn4)c(C)o3)cc2)s1 |
| 1060 s | COc1cccc(Nc2nc(C)c(C(=O)Nc3ccc(F)c(Cl)c3)s2)c1 |
| 1080 s | CCCN1C(=O)c2cc(S(=O)(=O)Nc3ccc(C)cc3F)ccc2Oc2cccnc21 |
| 982 s | CCN1C(=O)C(C)(C(=O)Nc2cc(C)cc(C)c2)Oc2cccnc21 (stereo not drawn) |
| 683 s | Cc1nn(C)cc1S(=O)(=O)NCCc1c[nH]c2ccccc12 |
| 802 s | Cc1ccc2c(c1Br)C(O)(CC(=O)c1ccc(F)cc1)C(=O)N2 (stereo not drawn) |

| RP-LC retention time | Compound |
| --- | --- |
| 676 s | O=C(NC1CCN(c2cc(-c3ccccc3)[nH]n2)CC1)c1ccoc1 |
| 640 s | O=C(NCc1ccccc1)c1ccc2c(c1)Sc1ncccc1C(=O)N2C1CC1 |
| 837 s | COc1ccc(-c2c(C)noc2NC(C)=O)cc1S(=O)(=O)Nc1ccc(C)cc1Cl |
| 973 s | CNS(=O)(=O)c1cccnc1Nc1ccc(F)c(Cl)c1 |
| 688 s | Cc1ccc(N2CCC(NC(=O)NC(C)C)C2=O)cc1 (stereo not drawn) |
| 703 s | Cc1nc2cccnc2n1CC1CCCN(S(=O)(=O)c2cc(F)ccc2F)C1 (stereo not drawn) |
| 603 s | CC(C)NC(=O)N1CCCC1c1noc(CCC(=O)NC2CC2)n1 (stereo not drawn) |
| 1160 s | Cc1nc(-c2nnn(-c3ccc(Cl)cc3)c2C)sc1C(=O)NC1CCCCC1 |
| 808 s | Nc1nc(N2CCC3(CC2)OCCO3)ncc1S(=O)(=O)c1ccccc1 |
| 687 s | CCOC(=O)C1=C(CN2CCC(c3ccccc3)C2)NC(=O)NC1c1ccc(F)cc1 (stereo not drawn) |
| 818 s | Cc1ccc(N2CCN(C(=O)c3cc(C)n4nccc4n3)CC2)cc1 |
| 903 s | Cc1ccc(C)c(-c2nc3ccccc3c(C(=O)N3CCN(c4ncccn4)CC3)c2C)c1 |
| 1030 s | CCOc1ccc(NS(=O)(=O)c2cc(C(=O)N3CCN(c4ccc(C)cc4C)CC3)n[nH]2)cc1 |
| 1130 s | Cc1[nH]nc(-c2c(C)sc(C)c2S(=O)(=O)NCCc2ccc(Cl)cc2)c1C |
| 897 s | N#Cc1ccc(-c2nc(C3CC(=O)N(c4ccc(F)cc4)C3)no2)cc1 (stereo not drawn) |
| 992 s | CCC(CC)C(=O)Nc1nc(-c2ccc3c(c2)N(C)C(=O)C(C)O3)cs1 (stereo not drawn) |
| 1310 s | CC(=O)c1cccc(OC(=O)c2cc3c(C)nn(-c4ccccc4)c3s2)c1 |
| 548 s | Cc1nnc2c(=O)n(CC(=O)N3CCN(c4ccccn4)CC3)c3cccnc3n12 |
| 789 s | Cc1cc2c(cc1S(=O)(=O)N1CCC(C(=O)NCc3ccccc3Cl)CC1)OCC(=O)N2 |
| 600 s | Cn1nnnc1SCC(=O)N1CCC(C(=O)NCC(F)(F)F)CC1 |
| 604 s | COc1ccc(-c2nc(NCCN(Cc3ccco3)C3CCCC3)c3ccccc3n2)cc1 |
| 675 s | COc1ccc(NC(=O)Nc2cccc(-c3ccc(N4CCOCC4)nn3)c2)cc1F |
| 859 s | CC1=C(c2ccc(C)cc2)S(=O)(=O)N=C1N1CCCN(C(=O)c2cccc(F)c2)CC1 |
| 572 s | CC(C)n1cnc2cc(CNC(=O)c3cnccn3)ccc21 |
| 787 s | CCCCOc1ccc(NC(=O)c2cc(=O)c3cc(Cl)ccc3o2)c2cccnc12 |
